Assay results published in article PMC3441706 (PLoS ONE, 2012).

Key:
[1] = tested on: K562; test: Cytotoxicity assay (cell counting); format: cell-based; conditions: Homo sapiens; K562, CML; 72 hours incubation
Protocol: (§1) Cells were plated in 24-well plates. After cells were allowed to recover for 24 hours, NVX-412 was added in fresh growth medium. The maximal DMSO concentration reached in all experiments was below 0.01%. Respective control experiments at the highest DMSO concentration were performed in order to rule out DMSO-induced effects. After 72 hours incubation the proportion of viable cells was determined by cell counting with a Z1 Coulter Particle Counter (Beckman Coulter, Vienna, AUT), a ViCell XR (Beckman Coulter, Vienna, AUT) or a CASY® Cell Counter (Schärfe, Reutlingen, Germany). Cytotoxicity was expressed as IC50 values that were derived from the corresponding dose–response curves.

[2] = tested on: CL-1; test: Cytotoxicity assay (cell counting); format: cell-based; conditions: Canis lupus familiaris; CL-1, canine T-cell lymphoma; 72 hours incubation
Protocol: as §1

[3] = tested on: CLBL-1; test: Cytotoxicity assay (cell counting); format: cell-based; conditions: Canis lupus familiaris; CLBL-1, canine B-cell lymphoma; 72 hours incubation
Protocol: as §1

[4] = tested on: Hs578T; test: Cytotoxicity assay (cell counting); format: cell-based; conditions: Homo sapiens, Hs-578T, breast carcinoma, 72 hours incubation
Protocol: as §1

[5] = tested on: MCF-7; test: Cytotoxicity assay (cell counting); format: cell-based; conditions: Homo sapiens, MCF7; MCF-7, breast adenocarcinoma; 72 hours incubation
Protocol: as §1

[6] = tested on: SU-DHL-6; test: Cytotoxicity assay (cell counting); format: cell-based; conditions: Homo sapiens; SU-DHL-6, B-cell lymphoma; 72 hours incubation
Protocol: as §1

[7] = tested on: KG-1a; test: Cytotoxicity assay (cell counting); format: cell-based; conditions: Homo sapiens, AML, 72 hours incubation
Protocol: as §1

[8] = tested on: BV173; test: Cytotoxicity assay (cell counting); format: cell-based; conditions: Homo sapiens, BV-173; BV173, CML; 72 hours incubation
Protocol: as §1

[9] = tested on: SU-DHL-8; test: Cytotoxicity assay (cell counting); format: cell-based; conditions: Homo sapiens; SU-DHL-8, B-cell lymphoma; 72 hours incubation
Protocol: as §1

[10] = tested on: GL-1; test: Cytotoxicity assay (cell counting); format: cell-based; conditions: Canis lupus familiaris; GL-1, canine B-cell leukemia; 72 hours incubation
Protocol: as §1

[11] = tested on: Ramos; test: Cytotoxicity assay (cell counting); format: cell-based; conditions: Homo sapiens, Burkitt Lymphoma, 72 hours incubation
Protocol: as §1

[12] = tested on: Raji; test: Cytotoxicity assay (cell counting); format: cell-based; conditions: Homo sapiens, Burkitt lymphoma, 72 hours incubation
Protocol: as §1

[13] = tested on: HepG2; test: Cytotoxicity assay (cell counting); format: cell-based; conditions: Homo sapiens; HepG2, liver carcinoma; 72 hours incubation
Protocol: as §1

[14] = tested on: OSW; test: Cytotoxicity assay (cell counting); format: cell-based; conditions: Canis lupus familiaris, canine T-cell lymphoma, 72 hours incubation
Protocol: as §1

[15] = tested on: HL-60; test: Cytotoxicity assay (cell counting); format: cell-based; conditions: Homo sapiens; HL-60, AML; 72 hours incubation
Protocol: as §1

[16] = tested on: HeLa; test: Cytotoxicity assay (cell counting); format: cell-based; conditions: Homo sapiens, cervix carcinoma, 72 hours incubation
Protocol: as §1

[17] = tested on: NALM-1; test: Cytotoxicity assay (cell counting); format: cell-based; conditions: Homo sapiens; NALM-1, CML; 72 hours incubation
Protocol: as §1

[18] = tested on: RKO; test: Cytotoxicity assay (cell counting); format: cell-based; conditions: Homo sapiens, colon carcinoma, 72 hours incubation
Protocol: as §1

[19] = tested on: KG-1; test: Cytotoxicity assay (cell counting); format: cell-based; conditions: Homo sapiens; KG-1, AML; 72 hours incubation
Protocol: as §1

[20] = tested on: p-p53 (Ser15); test: Immunofluorescence staining of p-p53 (Ser15) in HCT116 cells; format: cell-based, human; conditions: HCT116, 24 hours
Protocol: HCT116 and HeLa cells were seeded on glass cover slips in 6-well plates. 24 hours after plating, HCT116 cells were incubated with 0.15, 0.5 and 1 µM NVX-412 and 1 µM CPT for 24 hours for staining of p-p53. For investigating γH2AX, HeLa cells were incubated with 0.21, 0.5 and 1 µM NVX-412 and 1 µM CPT for 3 or 24 hours. Additionally, cells were allowed to recover for 24 hours in normal growth medium after 24 hours of incubation with NVX-412 or CPT (wash-out experiment). After the respective treatments, cells were washed and fixed with 4% methanol-free formaldehyde (Polysciences Inc. Warrington, PA, USA) for 15 minutes at room temperature and then permeabilized with 0.2% Triton X-100/PBS for 2 minutes at room temperature. After blocking with goat serum (5%) in 1% BSA/0.3% Triton X-100/PBS, the respective primary antibody was added and cells were incubated at 4°C overnight. Antibodies used were: mouse p-p53 (Ser15) (Cell Signaling Technology, Danvers, MA, USA) at 1∶100 dilution and mouse p-H2AX (Ser139) (Millipore, Billerica, MA, USA) at 1∶1000 dilution in 1% BSA/PBS, respectively. Cells were then washed 3 times for 10 minutes with 0.25% BSA/0.1% Triton X-100/PBS and incubated with the Alexa Fluor 488 conjugated secondary anti-mouse antibody (1∶1000 in 0.25% BSA/0.1% Triton X-100/PBS) for 1 hour at room temperature in the dark. Cells were washed 3 times for 10 minutes with 0.05% Tween-20/PBS containing Hoechst 33342 (Sigma Aldrich, Vienna, AUT) and mounted with mounting medium (Fluoprep, bioMérieux, Marcy l'Etoile, FRA). Fluorescence was immediately recorded on a Zeiss LSM700 laser scanning microscope.

[21] = tested on: HeLa cells; test: Flow cytometric cell cycle analysis; format: cell-based, human; conditions: 24 hours, IC50 concentration, 0.5 and 1 µM
Protocol: (§2) HT-29, HeLa and HCT116 cells were plated in 6-well plates. […] CPT was used at 50 nM and 1 µM. To analyze the cell cycle distribution, cells were collected after 24 hours of incubation and washed with PBS. Cells were fixed in 70% ethanol for at least 2 hours. For analysis, cells were transferred into PBS, incubated with RNAse A (0.04 µg/ml final concentration) for 30 minutes at 37°C, treated with […] propidium iodide for 30 min at 4°C and then analyzed by flow cytometry using BD FACScan (Becton, Dickinson and Company, Franklin Lakes, NJ, USA). The resulting DNA histograms were quantified using ModFit LT (Verity Software House, Topsham, ME, USA).

[22] = tested on: HT-29 cells; test: Flow cytometric cell cycle analysis; format: cell-based, human; conditions: HT-29, 24 hours, IC50 concentration, 0.5 and 1 µM
Protocol: as §2

[23] = tested on: HCT116 cells; test: Flow cytometric cell cycle analysis; format: cell-based, human; conditions: HCT116, 24 hours, IC50 concentration, 0.5 and 1 µM
Protocol: as §2

## O=C(NNc1nc2cc(F)ccc2n2cccc12)c1cnccn1 [NVX-412, Pyrazine-2-carboxylic acid N’- (7-fluoro-pyrrolo[1,2-α]quinoxalin-4-yl)-hydrazide-oxalic acid co-crystal]
[1]
  IC50: 540 nM
[2]
  IC50: 170 nM
[3]
  IC50: 40 nM
[4]
  IC50: 135 nM
[5]
  IC50: 150 nM
[6]
  IC50: 320 nM
[7]
  IC50: 145 nM
[8]
  IC50: 210 nM
[9]
  IC50: 80 nM
[10]
  IC50: 105 nM
[11]
  IC50: 170 nM
[12]
  IC50: 60 nM
[13]
  IC50: 290 nM
[14]
  IC50: 103 nM
[15]
  IC50: 210 nM
[16]
  IC50: 210 nM
[17]
  IC50: 330 nM
[18]
  IC50: 150 nM
[19]
  IC50: 190 nM
[20]; 0.5 and 1 µM
  p-p53 (Ser15) immunofluorescence staining: positive staining
[20]; IC50 concentration
  p-p53 (Ser15) immunofluorescence staining: did not lead to p-p53 (Ser15) staining
[21]
  Cell cycle distribution: dose-dependent increase in the fraction of S-phase cells
[22]
  Cell cycle distribution: dose-dependent increase in the fraction of S-phase cells
[23]
  Cell cycle distribution: dose-dependent increase in the fraction of S-phase cells
